The record followed here is BindingDB's records for PubMed 9336327 (Preclinical R & D, Astra Arcus, 1997).

Among the targets are Glutamate receptor 3 (Rattus norvegicus, UniProt P19492); Histamine H2 receptor (Cavia porcellus, UniProt P47747); Histamine H1 receptor (Rattus norvegicus, UniProt P31390); D(2) dopamine receptor (Homo sapiens, UniProt P14416); D(1A) dopamine receptor (Rattus norvegicus, UniProt P18901); D(3) dopamine receptor (Homo sapiens, UniProt P35462).
For assay [1], the target named is 5-hydroxytryptamine receptor 7 (Rattus norvegicus, UniProt P32305).
The next assay has as its target T1, Galanin peptides (Rattus norvegicus, UniProt P10683).
T1 sequence (P10683 whole entry): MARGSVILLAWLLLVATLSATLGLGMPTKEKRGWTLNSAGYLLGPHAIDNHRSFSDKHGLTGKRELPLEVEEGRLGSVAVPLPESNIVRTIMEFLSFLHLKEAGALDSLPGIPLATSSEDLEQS

In assay [2] the target is Gamma-aminobutyric acid receptor subunit alpha-1 (Rattus norvegicus, UniProt P62813).
Assay [3] has as its target 5-hydroxytryptamine receptor 2A (Rattus norvegicus, UniProt P14842).
The target in assay [4] is T2, 5-hydroxytryptamine receptor 1A (Rattus norvegicus, UniProt P19327).
T2 sequence (P19327 whole entry): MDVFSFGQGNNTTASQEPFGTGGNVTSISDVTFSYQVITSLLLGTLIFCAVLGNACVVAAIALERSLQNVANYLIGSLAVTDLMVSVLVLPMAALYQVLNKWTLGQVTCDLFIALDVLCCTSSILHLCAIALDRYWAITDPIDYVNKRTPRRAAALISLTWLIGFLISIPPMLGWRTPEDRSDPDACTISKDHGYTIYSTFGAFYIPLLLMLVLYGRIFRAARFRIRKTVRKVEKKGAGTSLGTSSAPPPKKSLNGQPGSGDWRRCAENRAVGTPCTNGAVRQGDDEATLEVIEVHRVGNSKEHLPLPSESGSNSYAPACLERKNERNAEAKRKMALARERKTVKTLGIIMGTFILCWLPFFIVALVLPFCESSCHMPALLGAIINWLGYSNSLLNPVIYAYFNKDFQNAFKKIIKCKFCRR

Assay [5] has as its target Glutamate receptor ionotropic, NMDA 1 (Rattus norvegicus, UniProt P35439).
The target in assay [6] is 5-hydroxytryptamine receptor 1B (Rattus norvegicus, UniProt P28564).
The target of assay [7] is Nicotinic acetylcholine receptor (Rattus leucopus, UniProt Q62594).
The target in assay [8] is T3, Alpha-2C adrenergic receptor (Rattus norvegicus, UniProt P22086).
T3 sequence (P22086 whole entry): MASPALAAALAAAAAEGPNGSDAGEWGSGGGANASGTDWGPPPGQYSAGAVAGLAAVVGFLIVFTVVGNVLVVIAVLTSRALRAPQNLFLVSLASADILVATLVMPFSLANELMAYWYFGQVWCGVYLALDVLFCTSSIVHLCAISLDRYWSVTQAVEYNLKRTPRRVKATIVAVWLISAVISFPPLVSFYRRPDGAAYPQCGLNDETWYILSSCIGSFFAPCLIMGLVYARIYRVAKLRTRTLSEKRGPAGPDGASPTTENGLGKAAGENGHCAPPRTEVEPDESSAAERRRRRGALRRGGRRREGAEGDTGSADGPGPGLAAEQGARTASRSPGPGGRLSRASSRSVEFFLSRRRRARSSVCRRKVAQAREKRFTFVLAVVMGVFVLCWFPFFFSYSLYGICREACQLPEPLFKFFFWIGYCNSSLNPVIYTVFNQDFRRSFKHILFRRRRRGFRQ

For assay [9], the target named is T4, Alpha-1A adrenergic receptor (Rattus norvegicus, UniProt P43140).
T4 sequence (P43140 whole entry): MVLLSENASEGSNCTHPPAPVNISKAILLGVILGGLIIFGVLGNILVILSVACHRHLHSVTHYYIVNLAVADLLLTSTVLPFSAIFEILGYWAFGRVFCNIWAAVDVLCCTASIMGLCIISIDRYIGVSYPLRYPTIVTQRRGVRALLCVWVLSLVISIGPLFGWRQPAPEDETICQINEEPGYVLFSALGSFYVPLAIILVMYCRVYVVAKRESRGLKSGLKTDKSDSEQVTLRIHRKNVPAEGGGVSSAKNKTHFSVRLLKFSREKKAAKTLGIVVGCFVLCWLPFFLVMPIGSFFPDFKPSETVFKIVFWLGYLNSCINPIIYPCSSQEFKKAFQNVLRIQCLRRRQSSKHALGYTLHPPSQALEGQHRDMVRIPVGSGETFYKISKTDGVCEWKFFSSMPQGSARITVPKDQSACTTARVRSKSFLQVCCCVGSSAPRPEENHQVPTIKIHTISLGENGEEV

The target of assay [10] is 5-hydroxytryptamine receptor 6 (Rattus norvegicus, UniProt P31388).
Assay [11] has as its target T5, Muscarinic acetylcholine receptor M2 (Rattus norvegicus, UniProt P10980).
T5 sequence (P10980 whole entry): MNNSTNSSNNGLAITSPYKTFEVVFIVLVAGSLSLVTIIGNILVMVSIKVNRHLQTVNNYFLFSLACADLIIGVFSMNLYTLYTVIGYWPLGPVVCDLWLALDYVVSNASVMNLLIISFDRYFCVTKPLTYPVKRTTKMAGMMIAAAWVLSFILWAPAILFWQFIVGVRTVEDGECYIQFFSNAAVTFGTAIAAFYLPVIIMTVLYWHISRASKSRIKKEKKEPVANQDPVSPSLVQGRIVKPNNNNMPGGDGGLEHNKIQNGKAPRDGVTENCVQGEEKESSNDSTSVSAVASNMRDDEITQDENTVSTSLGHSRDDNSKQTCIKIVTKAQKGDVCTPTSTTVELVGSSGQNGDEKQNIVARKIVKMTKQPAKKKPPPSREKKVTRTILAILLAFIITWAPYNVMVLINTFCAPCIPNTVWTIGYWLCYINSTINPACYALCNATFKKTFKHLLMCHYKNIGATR

Assay [12] has as its target Beta-2 adrenergic receptor (Rattus norvegicus, UniProt P10608).

Chain of Histamine H2 receptor (P47747 whole entry): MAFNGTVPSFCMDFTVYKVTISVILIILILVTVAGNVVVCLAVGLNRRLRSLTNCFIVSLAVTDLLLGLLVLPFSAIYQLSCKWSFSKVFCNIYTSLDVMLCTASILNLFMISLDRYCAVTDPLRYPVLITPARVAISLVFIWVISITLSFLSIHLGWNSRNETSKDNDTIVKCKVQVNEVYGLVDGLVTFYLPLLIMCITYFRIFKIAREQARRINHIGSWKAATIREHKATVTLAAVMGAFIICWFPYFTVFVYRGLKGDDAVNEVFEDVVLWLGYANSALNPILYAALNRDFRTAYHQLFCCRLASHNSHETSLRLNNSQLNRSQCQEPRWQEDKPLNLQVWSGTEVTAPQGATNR
Chain of D(1A) dopamine receptor (P18901 whole entry): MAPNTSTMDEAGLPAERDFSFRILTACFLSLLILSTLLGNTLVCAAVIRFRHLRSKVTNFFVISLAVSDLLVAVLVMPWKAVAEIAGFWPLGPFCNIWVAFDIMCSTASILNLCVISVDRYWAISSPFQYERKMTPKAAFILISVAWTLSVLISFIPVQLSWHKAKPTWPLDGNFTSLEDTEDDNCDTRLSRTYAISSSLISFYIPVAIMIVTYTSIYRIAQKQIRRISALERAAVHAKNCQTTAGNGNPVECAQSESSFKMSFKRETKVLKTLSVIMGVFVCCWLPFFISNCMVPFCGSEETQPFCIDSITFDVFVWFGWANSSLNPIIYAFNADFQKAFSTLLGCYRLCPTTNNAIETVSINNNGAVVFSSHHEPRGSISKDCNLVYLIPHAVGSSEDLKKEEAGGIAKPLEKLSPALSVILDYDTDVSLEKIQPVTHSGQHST
Chain of D(2) dopamine receptor (P14416 whole entry): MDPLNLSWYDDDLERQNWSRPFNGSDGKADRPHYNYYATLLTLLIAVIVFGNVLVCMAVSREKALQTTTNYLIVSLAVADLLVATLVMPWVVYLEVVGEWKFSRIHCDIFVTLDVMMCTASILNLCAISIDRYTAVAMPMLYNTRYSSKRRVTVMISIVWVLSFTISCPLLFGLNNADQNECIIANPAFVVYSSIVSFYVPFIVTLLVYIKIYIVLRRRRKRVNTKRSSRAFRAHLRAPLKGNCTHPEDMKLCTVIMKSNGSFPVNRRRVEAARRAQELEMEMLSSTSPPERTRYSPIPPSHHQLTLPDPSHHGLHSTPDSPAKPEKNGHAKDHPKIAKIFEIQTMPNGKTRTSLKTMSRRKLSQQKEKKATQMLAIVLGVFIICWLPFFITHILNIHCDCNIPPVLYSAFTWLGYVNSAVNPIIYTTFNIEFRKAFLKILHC
Chain of Beta-2 adrenergic receptor (P10608 whole entry): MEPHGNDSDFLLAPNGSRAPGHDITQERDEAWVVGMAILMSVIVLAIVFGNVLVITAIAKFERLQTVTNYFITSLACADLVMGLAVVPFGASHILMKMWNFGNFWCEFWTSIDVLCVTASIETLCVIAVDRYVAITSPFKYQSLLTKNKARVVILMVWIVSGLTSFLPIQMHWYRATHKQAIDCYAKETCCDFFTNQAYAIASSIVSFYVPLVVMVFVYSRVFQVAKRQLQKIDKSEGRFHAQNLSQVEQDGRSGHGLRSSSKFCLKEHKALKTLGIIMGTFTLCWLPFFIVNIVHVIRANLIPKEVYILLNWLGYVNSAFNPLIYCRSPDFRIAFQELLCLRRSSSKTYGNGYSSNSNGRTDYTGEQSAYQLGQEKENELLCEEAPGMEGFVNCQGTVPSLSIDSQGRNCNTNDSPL
Chain of Nicotinic acetylcholine receptor (Q62594 whole entry): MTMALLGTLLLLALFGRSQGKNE
Chain of Glutamate receptor 3 (P19492 whole entry): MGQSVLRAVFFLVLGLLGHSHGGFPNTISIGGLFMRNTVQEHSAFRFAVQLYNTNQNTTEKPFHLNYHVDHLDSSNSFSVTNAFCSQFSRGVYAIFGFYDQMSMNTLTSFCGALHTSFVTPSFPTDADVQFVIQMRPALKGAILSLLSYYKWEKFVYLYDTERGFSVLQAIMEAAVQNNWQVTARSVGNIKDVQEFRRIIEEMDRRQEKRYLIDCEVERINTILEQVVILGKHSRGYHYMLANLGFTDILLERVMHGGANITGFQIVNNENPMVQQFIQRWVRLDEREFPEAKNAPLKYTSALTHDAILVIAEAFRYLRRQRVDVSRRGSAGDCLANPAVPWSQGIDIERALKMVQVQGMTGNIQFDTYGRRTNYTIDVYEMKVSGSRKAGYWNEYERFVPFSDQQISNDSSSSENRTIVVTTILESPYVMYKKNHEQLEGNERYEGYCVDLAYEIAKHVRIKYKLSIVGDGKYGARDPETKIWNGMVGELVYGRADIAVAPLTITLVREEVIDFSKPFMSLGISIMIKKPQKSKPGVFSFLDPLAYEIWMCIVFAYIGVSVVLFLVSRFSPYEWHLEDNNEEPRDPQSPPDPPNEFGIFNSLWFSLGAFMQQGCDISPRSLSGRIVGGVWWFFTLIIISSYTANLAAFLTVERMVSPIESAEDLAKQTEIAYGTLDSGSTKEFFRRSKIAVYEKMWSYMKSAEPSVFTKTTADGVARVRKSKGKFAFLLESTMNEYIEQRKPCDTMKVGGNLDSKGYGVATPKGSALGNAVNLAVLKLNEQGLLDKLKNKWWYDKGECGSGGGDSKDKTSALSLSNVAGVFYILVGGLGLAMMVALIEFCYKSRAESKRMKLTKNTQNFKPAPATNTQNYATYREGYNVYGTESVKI
Chain of D(3) dopamine receptor (P35462 as listed by the source): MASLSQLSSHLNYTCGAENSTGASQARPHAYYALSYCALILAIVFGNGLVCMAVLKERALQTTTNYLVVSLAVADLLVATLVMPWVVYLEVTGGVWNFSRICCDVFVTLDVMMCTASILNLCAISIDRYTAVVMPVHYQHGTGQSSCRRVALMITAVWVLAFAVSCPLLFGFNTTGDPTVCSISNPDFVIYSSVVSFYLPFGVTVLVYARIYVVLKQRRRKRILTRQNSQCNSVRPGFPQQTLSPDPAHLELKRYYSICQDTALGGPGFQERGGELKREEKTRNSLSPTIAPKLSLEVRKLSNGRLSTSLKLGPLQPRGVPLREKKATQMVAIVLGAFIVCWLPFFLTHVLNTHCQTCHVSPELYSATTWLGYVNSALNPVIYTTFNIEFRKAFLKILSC
Chain of Gamma-aminobutyric acid receptor subunit alpha-1 (P62813 whole entry): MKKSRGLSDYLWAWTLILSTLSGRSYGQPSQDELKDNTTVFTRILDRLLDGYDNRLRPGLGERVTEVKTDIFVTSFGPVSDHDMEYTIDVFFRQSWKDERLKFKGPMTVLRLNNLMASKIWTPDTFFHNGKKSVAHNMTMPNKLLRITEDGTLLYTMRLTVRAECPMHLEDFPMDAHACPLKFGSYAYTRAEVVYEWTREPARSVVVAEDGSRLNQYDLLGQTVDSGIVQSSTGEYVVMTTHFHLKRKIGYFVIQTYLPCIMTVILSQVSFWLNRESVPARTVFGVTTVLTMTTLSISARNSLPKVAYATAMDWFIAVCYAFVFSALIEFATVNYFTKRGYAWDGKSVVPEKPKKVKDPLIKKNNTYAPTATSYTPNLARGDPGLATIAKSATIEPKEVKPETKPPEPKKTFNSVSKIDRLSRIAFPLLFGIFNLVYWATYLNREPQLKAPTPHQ
Chain of 5-hydroxytryptamine receptor 2A (P14842 whole entry): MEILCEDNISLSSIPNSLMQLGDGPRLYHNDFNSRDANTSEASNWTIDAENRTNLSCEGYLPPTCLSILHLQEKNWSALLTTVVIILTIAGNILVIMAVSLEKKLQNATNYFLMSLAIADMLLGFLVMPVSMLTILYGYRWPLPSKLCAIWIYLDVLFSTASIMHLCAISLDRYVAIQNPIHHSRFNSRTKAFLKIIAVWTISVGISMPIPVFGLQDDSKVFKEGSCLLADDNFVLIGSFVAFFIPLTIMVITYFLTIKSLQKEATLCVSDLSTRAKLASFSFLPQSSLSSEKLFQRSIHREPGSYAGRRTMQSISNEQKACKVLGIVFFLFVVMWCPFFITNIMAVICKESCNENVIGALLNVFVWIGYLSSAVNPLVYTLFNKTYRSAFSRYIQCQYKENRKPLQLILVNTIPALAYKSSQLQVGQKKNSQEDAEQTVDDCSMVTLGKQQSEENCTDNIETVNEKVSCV
Chain of Histamine H1 receptor (P31390 whole entry): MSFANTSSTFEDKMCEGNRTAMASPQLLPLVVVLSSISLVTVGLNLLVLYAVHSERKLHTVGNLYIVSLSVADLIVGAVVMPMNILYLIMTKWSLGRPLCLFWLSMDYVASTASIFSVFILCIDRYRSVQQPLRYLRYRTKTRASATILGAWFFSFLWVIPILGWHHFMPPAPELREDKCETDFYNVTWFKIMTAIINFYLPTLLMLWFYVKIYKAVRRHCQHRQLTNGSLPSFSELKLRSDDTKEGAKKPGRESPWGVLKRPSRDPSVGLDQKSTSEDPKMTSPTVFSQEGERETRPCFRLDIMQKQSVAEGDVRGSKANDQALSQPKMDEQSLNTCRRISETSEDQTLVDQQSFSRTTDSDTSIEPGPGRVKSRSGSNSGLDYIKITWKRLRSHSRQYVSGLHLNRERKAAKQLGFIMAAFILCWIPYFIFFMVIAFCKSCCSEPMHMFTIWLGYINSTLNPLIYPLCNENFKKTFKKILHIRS
Chain of 5-hydroxytryptamine receptor 6 (P31388 whole entry): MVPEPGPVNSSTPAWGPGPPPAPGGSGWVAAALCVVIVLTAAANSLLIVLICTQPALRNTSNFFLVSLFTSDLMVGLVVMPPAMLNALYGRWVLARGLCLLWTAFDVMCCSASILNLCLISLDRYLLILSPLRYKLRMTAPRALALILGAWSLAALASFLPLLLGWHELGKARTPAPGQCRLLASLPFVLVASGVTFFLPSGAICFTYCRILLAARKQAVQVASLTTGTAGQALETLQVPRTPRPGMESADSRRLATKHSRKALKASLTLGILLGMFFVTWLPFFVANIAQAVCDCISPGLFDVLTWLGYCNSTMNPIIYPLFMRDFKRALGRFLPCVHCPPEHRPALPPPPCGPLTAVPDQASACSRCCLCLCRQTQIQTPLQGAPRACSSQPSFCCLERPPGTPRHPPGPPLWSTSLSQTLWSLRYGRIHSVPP

For `NC(=O)c1ccc(F)c2c1CC(N(C1CCC1)C1CCC1)CO2` (stereo not drawn) [CAS_3055171], the Ki was greater than 10000 nM on Glutamate receptor 3; 1900 nM in [1]; 2600 nM on Galanin peptides; greater than 10000 nM in assay [2]; greater than 10000 nM in assay [3]; greater than 10000 nM on Histamine H2 receptor. The Ki in assay [4] is 0.59 nM; in [5], greater than 10000 nM; on Histamine H1 receptor, greater than 10000 nM; in assay [6], 1000 nM; in [7] it was greater than 10000 nM; in assay [8], 1000 nM. Also, the Ki is 260 nM in assay [9]; greater than 10000 nM in [10]; 1000 nM in assay [11]; 340 nM in [12]; 1000 nM at D(2) dopamine receptor; 1000 nM at D(1A) dopamine receptor. This molecule also showed a Ki on D(3) dopamine receptor of 1000 nM.
Consider `COc1ccccc1N1CCN(CCN(C(=O)C2CCCCC2)c2ccccn2)CC1`, for which the Ki was greater than 10000 nM on Glutamate receptor 3; 2600 nM at Galanin peptides; greater than 10000 nM in assay [2]; 1100 nM in [3]; greater than 10000 nM at Histamine H2 receptor; greater than 10000 nM in assay [5]. The Ki on Histamine H1 receptor was greater than 10000 nM; in assay [7], greater than 10000 nM; in [8] it was 1000 nM; in [11] it was 1000 nM; in assay [12], 1000 nM; on D(2) dopamine receptor, 79 nM. The Ki on D(1A) dopamine receptor was determined as 1000 nM; on D(3) dopamine receptor, 67 nM.

Broadly, the Ki is the dissociation constant of the complex between target and ligand, obtained from inhibition or displacement.
